Results taken from the NIST ThermoML archive (doi:10.1016/j.jct.2012.09.004).
± gives the expanded uncertainty stated by the source.

What was measured:
[1] = refractive index (Na D-line) (dimensionless); wn = mass fraction of the nth substance listed; details: 101 kPa, Liquid, Standard Abbe refractometry
[2] = wn = mass fraction of the nth substance listed; details: Pendant drop shape
[3] = refractive index (Na D-line) (dimensionless); details: 101.33 kPa, Liquid, Standard Abbe refractometry
[4] = Pendant drop shape

CC(CC(C)(C)C)CP(=O)([O-])CC(C)CC(C)(C)C.CCCCCCCCCCCCCC[P+](CCCCCC)(CCCCCC)CCCCCC + O
w2 = 0.158
Details | refractive index | surface tension liquid-gas [mN/m]
[1], 298.15 K | 1.45864 ± 0.00037 | –
[1], 303.15 K | 1.45697 ± 0.00037 | –
[1], 308.15 K | 1.45534 ± 0.00037 | –
[1], 313.15 K | 1.45363 ± 0.00037 | –
[1], 318.15 K | 1.45192 ± 0.00037 | –
[1], 323.15 K | 1.45019 ± 0.00037 | –
[1], 328.15 K | 1.44849 ± 0.00037 | –
[1], 333.15 K | 1.44683 ± 0.00037 | –
[1], 338.15 K | 1.44523 ± 0.00037 | –
[1], 343.15 K | 1.44374 ± 0.00037 | –
[1], 348.15 K | 1.4424 ± 0.00037 | –
[1], 353.15 K | 1.44126 ± 0.00037 | –
[2], 297.9 K | – | 28.32 ± 0.33
[2], 307.9 K | – | 27.7 ± 0.32
[2], 317.9 K | – | 27.24 ± 0.32
[2], 328.8 K | – | 26.41 ± 0.31
[2], 339 K | – | 25.6 ± 0.3
[2], 343.4 K | – | 25.34 ± 0.3

CCCCCCCCCCCCCC[P+](CCCCCC)(CCCCCC)CCCCCC.[Cl-] [trihexyl(tetradecyl)phosphonium chloride] + O
w2 = 0.1334
Details | refractive index | surface tension liquid-gas [mN/m]
[1], 298.15 K | 1.46283 ± 0.00037 | –
[1], 303.15 K | 1.46133 ± 0.00037 | –
[1], 308.15 K | 1.45953 ± 0.00037 | –
[1], 313.15 K | 1.45768 ± 0.00037 | –
[1], 318.15 K | 1.45595 ± 0.00037 | –
[1], 323.15 K | 1.45425 ± 0.00037 | –
[1], 328.15 K | 1.45266 ± 0.00037 | –
[1], 333.15 K | 1.45124 ± 0.00037 | –
[1], 338.15 K | 1.44998 ± 0.00037 | –
[1], 343.15 K | 1.44892 ± 0.00037 | –
[1], 348.15 K | 1.44798 ± 0.00037 | –
[1], 353.15 K | 1.4471 ± 0.00037 | –
[2], 298.6 K | – | 30.81 ± 0.35
[2], 308 K | – | 30.01 ± 0.34
[2], 318.3 K | – | 29.2 ± 0.34
[2], 328.7 K | – | 28.45 ± 0.33
[2], 342.7 K | – | 27.43 ± 0.32

CCCCCCCCCCCCCC[P+](CCCCCC)(CCCCCC)CCCCCC.CS(=O)(=O)[O-] [trihexyltetradecylphosphonium methanesulfonate]
Details | refractive index | surface tension liquid-gas [mN/m]
[3], 283.15 K | 1.47813 ± 0.00037 | –
[3], 288.15 K | 1.47668 ± 0.00037 | –
[3], 293.15 K | 1.47507 ± 0.00037 | –
[3], 298.15 K | 1.47346 ± 0.00037 | –
[3], 303.15 K | 1.47186 ± 0.00037 | –
[3], 308.15 K | 1.47025 ± 0.00037 | –
[3], 313.15 K | 1.46865 ± 0.00037 | –
[3], 318.15 K | 1.46702 ± 0.00037 | –
[3], 323.15 K | 1.4654 ± 0.00037 | –
[3], 328.15 K | 1.4638 ± 0.00037 | –
[3], 333.15 K | 1.46217 ± 0.00037 | –
[3], 338.15 K | 1.46053 ± 0.00037 | –
[3], 343.15 K | 1.45895 ± 0.00037 | –
[3], 348.15 K | 1.45727 ± 0.00037 | –
[3], 353.15 K | 1.45572 ± 0.00037 | –
[4], 298.3 K | – | 31 ± 0.4
[4], 308 K | – | 30.3 ± 0.4
[4], 318.5 K | – | 29.6 ± 0.3
[4], 328.8 K | – | 28.8 ± 0.3
[4], 338.7 K | – | 28.2 ± 0.4
[4], 343.5 K | – | 27.9 ± 0.4

CCCCCCCCCCCCCC[P+](CCCCCC)(CCCCCC)CCCCCC.N#C[N-]C#N [tetradecyl(trihexyl)phosphonium dicyanamide] + O
w2 = 0.0309
Details | refractive index | surface tension liquid-gas [mN/m]
[1], 298.15 K | 1.47866 ± 0.00037 | –
[1], 303.15 K | 1.47702 ± 0.00037 | –
[1], 308.15 K | 1.47535 ± 0.00037 | –
[1], 313.15 K | 1.47367 ± 0.00037 | –
[1], 318.15 K | 1.47207 ± 0.00037 | –
[1], 323.15 K | 1.47049 ± 0.00037 | –
[1], 328.15 K | 1.46893 ± 0.00037 | –
[1], 333.15 K | 1.46739 ± 0.00037 | –
[1], 338.15 K | 1.46586 ± 0.00037 | –
[1], 343.15 K | 1.46442 ± 0.00037 | –
[1], 348.15 K | 1.46302 ± 0.00037 | –
[1], 353.15 K | 1.46163 ± 0.00037 | –
[2], 298.2 K | – | 32.56 ± 0.37
[2], 307.8 K | – | 31.8 ± 0.4
[2], 318 K | – | 31.2 ± 0.4
[2], 328 K | – | 30.5 ± 0.4
[2], 338.8 K | – | 29.9 ± 0.4
[2], 342.8 K | – | 29.5 ± 0.3

CCCCCCCCCCCCCC[P+](CCCCCC)(CCCCCC)CCCCCC.O=S(=O)([N-]S(=O)(=O)C(F)(F)F)C(F)(F)F + O
w2 = 0.0023
Details | refractive index | surface tension liquid-gas [mN/m]
[1], 298.15 K | 1.44921 ± 0.00037 | –
[1], 303.15 K | 1.44765 ± 0.00037 | –
[1], 308.15 K | 1.44606 ± 0.00037 | –
[1], 313.15 K | 1.44449 ± 0.00037 | –
[1], 318.15 K | 1.44293 ± 0.00037 | –
[1], 323.15 K | 1.44136 ± 0.00037 | –
[1], 328.15 K | 1.4398 ± 0.00037 | –
[1], 333.15 K | 1.43822 ± 0.00037 | –
[1], 338.15 K | 1.43669 ± 0.00037 | –
[1], 343.15 K | 1.43515 ± 0.00037 | –
[1], 348.15 K | 1.43362 ± 0.00037 | –
[1], 353.15 K | 1.43207 ± 0.00037 | –
[2], 298.1 K | – | 30.05 ± 0.35
[2], 307.8 K | – | 29.33 ± 0.34
[2], 318 K | – | 28.6 ± 0.3
[2], 328 K | – | 27.91 ± 0.33
[2], 338.6 K | – | 27.17 ± 0.32
[2], 343.3 K | – | 26.88 ± 0.32

CCCCCCCCCC(=O)[O-].CCCCCCCCCCCCCC[P+](CCCCCC)(CCCCCC)CCCCCC [trihexyltetradecylphosphonium decanoate] + O
w2 = 0.1526
Details | refractive index | surface tension liquid-gas [mN/m]
[1], 298.15 K | 1.45342 ± 0.00037 | –
[1], 303.15 K | 1.45194 ± 0.00037 | –
[1], 308.15 K | 1.45041 ± 0.00037 | –
[1], 313.15 K | 1.44877 ± 0.00037 | –
[1], 318.15 K | 1.44699 ± 0.00037 | –
[1], 323.15 K | 1.44498 ± 0.00037 | –
[1], 328.15 K | 1.4431 ± 0.00037 | –
[1], 333.15 K | 1.44129 ± 0.00037 | –
[1], 338.15 K | 1.43948 ± 0.00037 | –
[1], 343.15 K | 1.43763 ± 0.00037 | –
[1], 348.15 K | 1.43579 ± 0.00037 | –
[1], 353.15 K | 1.43397 ± 0.00037 | –
[2], 298.4 K | – | 29.1 ± 0.4
[2], 307.7 K | – | 28.5 ± 0.4
[2], 318 K | – | 27.7 ± 0.4
[2], 328.9 K | – | 26.8 ± 0.4
[2], 339.2 K | – | 26 ± 0.4
[2], 344.3 K | – | 25.6 ± 0.4

CCCCCCCCCCCCCC[P+](CCCCCC)(CCCCCC)CCCCCC.N#C[N-]C#N [tetradecyl(trihexyl)phosphonium dicyanamide]
Details | refractive index | surface tension liquid-gas [mN/m]
[3], 283.15 K | 1.48861 ± 0.00037 | –
[3], 288.15 K | 1.48706 ± 0.00037 | –
[3], 293.15 K | 1.48545 ± 0.00037 | –
[3], 298.15 K | 1.48387 ± 0.00037 | –
[3], 303.15 K | 1.48228 ± 0.00037 | –
[3], 308.15 K | 1.48064 ± 0.00037 | –
[3], 313.15 K | 1.47902 ± 0.00037 | –
[3], 318.15 K | 1.47744 ± 0.00037 | –
[3], 323.15 K | 1.47585 ± 0.00037 | –
[3], 328.15 K | 1.47421 ± 0.00037 | –
[3], 333.15 K | 1.47252 ± 0.00037 | –
[3], 338.15 K | 1.4709 ± 0.00037 | –
[3], 343.15 K | 1.46926 ± 0.00037 | –
[3], 348.15 K | 1.46767 ± 0.00037 | –
[3], 353.15 K | 1.46599 ± 0.00037 | –
[4], 298.4 K | – | 32.3 ± 0.4
[4], 308 K | – | 31.6 ± 0.4
[4], 318 K | – | 30.9 ± 0.4
[4], 328.4 K | – | 30.3 ± 0.4
[4], 339.2 K | – | 29.7 ± 0.4
[4], 343.4 K | – | 29.4 ± 0.3
